Values of other authors as cited in patent US20110303570A1, “PACKAGE OF SOLID PHARMACEUTICAL PREPARATION” (Astellas Pharma Inc., priority 2009, published 2011).

Conditions: administered either orally or directly into the colon of a mammal

Q: Which Bioavailability as gabapentin does the source give for `CC(OC(=O)NCC1(CC(=O)O)CCCCC1)OC(=O)C(C)C` (stereo not drawn) [1-{[(α-isobutanoyloxyethoxy)carbonyl]aminomethyl}-1-cyclohexane acetic acid] here?
A: high
